Data from PubChem BioAssay AID1745844 (Carcinogenic Potency Database (CPDB), 2022).

Test system: rodent lifetime carcinogenesis bioassay, tumor incidence TD50
Experiment: carcinogenic potency in animals, long-term in vivo studies, CPDB compilation (AID 1745844)
Details: mouse, strain B6C3F1, inhaled

With `C=CC=C` the TD50 (females, site: Harderian gland, lesion: adenocarcinoma + adenoma + adenoma, bilateral, dosed 83 weeks, study length 104 weeks) was 26.2 mg/kg/day, the TD50 (females, site: Harderian gland, lesion: adenoma + adenoma, bilateral, dosed 83 weeks, study length 104 weeks) was 26.2 mg/kg/day and the TD50 (females, site: Zymbal's gland, lesion: adenoma + carcinoma, dosed 83 weeks, study length 104 weeks) was 3540 mg/kg/day. For the same molecule, the TD50 (females, site: all sites + forestomach + Harderian gland + heart + liver + lung + mammary gland + ovary, lesion: histiocytic sarcoma + malignant lymphoma, mixed type + malignant lymphoma, lymphocytic type + malignant lymphoma, undifferenti, dosed 83 weeks, study length 104 weeks) was 6.79 mg/kg/day, the TD50 (females, site: all sites + forestomach + heart + liver + lung + mammary gland + ovary, lesion: malignant lymphoma, NOS + squamous-cell papilloma + hemangiosarcoma + hepatocellular adenoma + hepatocellular carcinoma + alveolar, dosed 61 weeks, study length 61 weeks) was 53 mg/kg/day and the TD50 (females, site: all sites, lesion: hemangioma + hemangiosarcoma, dosed 83 weeks, study length 104 weeks) was 35 mg/kg/day. It also gave a TD50 (females, site: all sites, lesion: hemangiosarcoma, dosed 83 weeks, study length 104 weeks) of 44.2 mg/kg/day, a TD50 (females, site: all sites, lesion: histiocytic sarcoma + malignant lymphoma, mixed type + malignant lymphoma, lymphocytic type + malignant lymphoma, undifferenti, dosed 83 weeks, study length 104 weeks) of 27.4 mg/kg/day and a TD50 (females, site: all sites, lesion: histiocytic sarcoma, dosed 83 weeks, study length 104 weeks) of 125 mg/kg/day. The TD50 (females, site: all sites, lesion: malignant lymphoma, NOS, dosed 61 weeks, study length 61 weeks) was 270 mg/kg/day, the TD50 (females, site: all sites, lesion: malignant lymphoma, lymphocytic type, dosed 83 weeks, study length 104 weeks) was 74.9 mg/kg/day and the TD50 (females, site: all sites, lesion: malignant lymphoma, mixed type + malignant lymphoma, lymphocytic type + malignant lymphoma, undifferentiated type + malignant, dosed 83 weeks, study length 104 weeks) was 35.2 mg/kg/day. The TD50 (females, site: any site (literature study), lesion: several types, types named in the paper, dosed 61 weeks, study length 61 weeks) was 41.5 mg/kg/day, the TD50 (females, site: any site (literature study), lesion: several types, types named in the paper, dosed 83 weeks, study length 104 weeks) was 6.28 mg/kg/day and the TD50 (females, site: forestomach, lesion: papilloma, NOS + squamous-cell carcinoma + squamous-cell papilloma, dosed 61 weeks, study length 61 weeks) was 462 mg/kg/day. For the same molecule, the TD50 (females, site: forestomach, lesion: papilloma, NOS + squamous-cell papilloma, dosed 61 weeks, study length 61 weeks) was 483 mg/kg/day, the TD50 (females, site: forestomach, lesion: squamous-cell carcinoma + squamous-cell papilloma, dosed 61 weeks, study length 61 weeks) was 396 mg/kg/day and the TD50 (females, site: forestomach, lesion: squamous-cell carcinoma + squamous-cell papilloma, dosed 83 weeks, study length 104 weeks) was 83.9 mg/kg/day. For the same molecule, the TD50 (females, site: forestomach, lesion: squamous-cell carcinoma, dosed 83 weeks, study length 104 weeks) was 257 mg/kg/day, the TD50 (females, site: forestomach, lesion: squamous-cell papilloma, dosed 61 weeks, study length 61 weeks) was 461 mg/kg/day and the TD50 (females, site: forestomach, lesion: squamous-cell papilloma, dosed 83 weeks, study length 104 weeks) was 126 mg/kg/day. For the same molecule, the TD50 (females, site: heart + liver + subcutaneous tissue, lesion: hemangiosarcoma, dosed 61 weeks, study length 61 weeks) was 147 mg/kg/day, the TD50 (females, site: heart, lesion: hemangiosarcoma, dosed 61 weeks, study length 61 weeks) was 283 mg/kg/day and the TD50 (females, site: heart, lesion: hemangiosarcoma, dosed 83 weeks, study length 104 weeks) was 104 mg/kg/day. For the same molecule, the TD50 (females, site: kidney, lesion: tubule adenoma, dosed 83 weeks, study length 104 weeks) was 1060 mg/kg/day, the TD50 (females, site: liver, lesion: hepatocellular adenoma + hepatocellular carcinoma + neoplastic nodule, dosed 61 weeks, study length 61 weeks) was 1170 mg/kg/day and the TD50 (females, site: liver, lesion: hepatocellular adenoma + hepatocellular carcinoma + neoplastic nodule, dosed 83 weeks, study length 104 weeks) was 22.8 mg/kg/day. It also gave a TD50 (females, site: liver, lesion: hepatocellular adenoma + hepatocellular carcinoma, dosed 61 weeks, study length 61 weeks) of 1170 mg/kg/day, a TD50 (females, site: liver, lesion: hepatocellular adenoma + hepatocellular carcinoma, dosed 83 weeks, study length 104 weeks) of 22.8 mg/kg/day and a TD50 (females, site: liver, lesion: hepatocellular adenoma, dosed 61 weeks, study length 61 weeks) of 1590 mg/kg/day. For the same molecule, the TD50 (females, site: liver, lesion: hepatocellular adenoma, dosed 83 weeks, study length 104 weeks) was 28.5 mg/kg/day, the TD50 (females, site: liver, lesion: hepatocellular carcinoma, dosed 83 weeks, study length 104 weeks) was 50.5 mg/kg/day and the TD50 (females, site: lung, lesion: alveolar/bronchiolar adenoma + alveolar/bronchiolar carcinoma + adenocarcinoma, dosed 83 weeks, study length 104 weeks) was 12.4 mg/kg/day. The TD50 (females, site: lung, lesion: alveolar/bronchiolar adenoma + alveolar/bronchiolar carcinoma, dosed 61 weeks, study length 61 weeks) was 203 mg/kg/day, the TD50 (females, site: lung, lesion: alveolar/bronchiolar adenoma + alveolar/bronchiolar carcinoma, dosed 83 weeks, study length 104 weeks) was 13.8 mg/kg/day and the TD50 (females, site: lung, lesion: alveolar/bronchiolar adenoma, dosed 61 weeks, study length 61 weeks) was 259 mg/kg/day. For the same molecule, the TD50 (females, site: lung, lesion: alveolar/bronchiolar adenoma, dosed 83 weeks, study length 104 weeks) was 20.3 mg/kg/day, the TD50 (females, site: lung, lesion: alveolar/bronchiolar carcinoma + adenocarcinoma, dosed 83 weeks, study length 104 weeks) was 23.9 mg/kg/day and the TD50 (females, site: lung, lesion: alveolar/bronchiolar carcinoma, dosed 61 weeks, study length 61 weeks) was 227 mg/kg/day. The TD50 (females, site: mammary gland, lesion: acinar-cell carcinoma, dosed 61 weeks, study length 61 weeks) was 1030 mg/kg/day, the TD50 (females, site: mammary gland, lesion: adenoacanthoma, dosed 83 weeks, study length 104 weeks) was 87.7 mg/kg/day and the TD50 (females, site: mammary gland, lesion: adenocarcinoma + adenoacanthoma + mixed tumor, malignant, dosed 83 weeks, study length 104 weeks) was 47.4 mg/kg/day. The TD50 (females, site: mammary gland, lesion: adenocarcinoma, dosed 83 weeks, study length 104 weeks) was 93.3 mg/kg/day, the TD50 (females, site: mammary gland, lesion: mixed tumor, malignant, dosed 83 weeks, study length 104 weeks) was 2710 mg/kg/day and the TD50 (females, site: ovary, lesion: adenoma + mixed tumor, benign, dosed 83 weeks, study length 104 weeks) was 78.9 mg/kg/day. The TD50 (females, site: ovary, lesion: adenoma, dosed 83 weeks, study length 104 weeks) was 217 mg/kg/day, the TD50 (females, site: ovary, lesion: granulosa-cell carcinoma + granulosa-cell tumor, dosed 61 weeks, study length 61 weeks) was 370 mg/kg/day and the TD50 (females, site: ovary, lesion: granulosa-cell carcinoma, dosed 61 weeks, study length 61 weeks) was 7580 mg/kg/day. For the same molecule, the TD50 (females, site: ovary, lesion: granulosa-cell tumor, benign + granulosa-cell tumor, bilateral, dosed 83 weeks, study length 104 weeks) was 98 mg/kg/day, the TD50 (females, site: ovary, lesion: granulosa-cell tumor, benign + granulosa-cell tumor, malignant, dosed 83 weeks, study length 104 weeks) was 65.4 mg/kg/day and the TD50 (females, site: ovary, lesion: granulosa-cell tumor, malignant, dosed 83 weeks, study length 104 weeks) was 198 mg/kg/day. It also gave a TD50 (females, site: ovary, lesion: mixed tumor, benign, dosed 83 weeks, study length 104 weeks) of 202 mg/kg/day, a TD50 (females, site: subcutaneous tissue, lesion: neurofibrosarcoma + sarcoma, dosed 83 weeks, study length 104 weeks) of 128 mg/kg/day and a TD50 (females, site: subcutaneous tissue, lesion: sarcoma, dosed 83 weeks, study length 104 weeks) of 131 mg/kg/day. For the same molecule, the TD50 (males, site: Harderian gland, lesion: adenocarcinoma + adenocarcinoma, bilateral, dosed 13 weeks, study length 104 weeks) was 63.5 mg/kg/day.
